From patent US6362225B1 (priority 1999, dated 2002)

Experiments:
[1] = system: herpes simplex II; experiment: Lysine nasal spray for herpes outbreaks; type: in vivo, human
[2] = system: cold virus; experiment: Nasal spray of lysine after exposure to persons with severe colds; type: in vivo, human; conditions: nasal spray continued for at least three days after exposure to persons with severe colds
Source text: The administration of lysine in the form of a nasal spray was used by other test subjects after being exposed to persons with severe colds, that is persons who were frequently coughing and sneezing.

[3] = system: canker sore; experiment: Lysine solution applied directly to canker sores and cold sores; type: in vivo, human
Source text: Another test subject with a long history of canker sore outbreaks reported that once one canker sore appeared several more usually followed within a day or two. These sores were quite painful and often lasted from five to ten days. The subject was given the lysine solution and told to apply it directly to the lesion. […] The application was repeated every three or four hours until the canker sore was completely healed. […] Since this subject has been using the lysine solution the outbreaks of canker sores are infrequent and are healed very quickly.
As shown above, the use of lysine by targeting the infected areas may shorten the duration of the outbreak and may even prevent illnesses such as colds and sore throats if used directly after contact with an infected person or at the onset of symptoms. Essentially the use of the lysine solution or composition in the nose, mouth and/or lungs, or other specific areas of the body may represent a topical application of lysine to the infected area. Thus, the duration of an infection may be considerably lessened by applying lysine to that infected area.

[4] = system: cold virus; experiment: Nasal spray of lysine solution in test subjects with colds or flu; type: in vivo, human
[5] = system: upper respiratory infections settled in the lungs; experiment: Lysine solution by nebulizer directly into the lungs; type: in vivo, human; conditions: one test subject
Source text: Often upper respiratory infections settle in the lungs and can cause prolonged discomfort, coughing and heavy chest congestion.

[6] = system: sore throat; experiment: Lysine nasal inhalation or throat spray for sore throat; type: in vivo, human; conditions: one test subject
Source text: A test subject used nasal inhalation of lysine every three hours to treat a sore throat and reported relief after one day.
Another test subject who has suffered from throat infections for many years used the lysine spray directly into the throat at the first sign of soreness on at least four occassions. The treatment was repeated every three to four hours for two days.

[7] = cited from earlier work
[8] = ten test subjects, cold virus, […], 3500 mg lysine in 1.5 oz. 0.65% saline, spray twice in each nostril every three hours

Cl.NCCCC[C@H](N)C(=O)O [lysine, L-lysine monohydrochloride]
Effect on herpes simplex II outbreak ([1]; one test subject with twenty year history, nasal spray every three hours for one day): stopped the outbreak
Response of genital herpes outbreaks ([1]; one test subject, nasal spray plus lysine tablets, compared with tablets alone): responded much faster than with the tablets alone
Prevention of herpes outbreaks ([1]; same test subject, regular use of the nasal spray): prevented herpes outbreaks to the point of almost eliminating them altogether
Cold symptoms after exposure [2]: never felt cold symptoms at all
Secondary canker sore lesions ([3]; one test subject, application repeated every three or four hours): no secondary lesions developed
Time until canker sore completely healed ([3]; one test subject, application repeated every three or four hours, sores previously lasted five to ten days): three to five
Pain associated with canker sore ([3]; one test subject, solution applied directly to the lesion): alleviated as soon as the solution was applied
Healing response of cold sores and canker sores ([3]; solution applied directly, in contrast to ingestion of lysine tablets alone): fast healing response
Effectiveness of treatment at lengthened intervals ([4]; colds or flu, intervals lengthened to six or more hours, compared with one to four hours): considerably less effective
Number of subjects reporting relief obtained in 1 day [4, 8]: 5
Number of subjects reporting relief obtained in 2 days [4, 8]: 3
Number of subjects reporting relief obtained in 3 days [4, 8]: 2
Onset of lessening of lung symptoms [5]: lessened almost immediately
Time until symptoms cleared up completely [5]: one to three
Time to relief of sore throat ([6]; nasal inhalation every three hours): one
Development of full sore throat ([6]; spray directly into the throat at first sign of soreness, every three to four hours for two days, at least four occasions): never occurred
Toxic levels ([7]; general statement): No toxic levels
Adverse side effects of ingested lysine ([7]; high doses ingested as tablets): gastric distress
